# Patent publication US20250213451A1, “AN ORAL CARE COMPOSITION COMPRISING A GLYCOLIPID AND A MILD SURFACTANT” (priority 2021, published 2025)
# Test system: oral tissue cells based on EpiOral Tissue Model
# Test: Oral irritation evaluation, EpiOral Tissue Model
# Type: cell-based
# Method: The oral irritation evaluation was conducted to test the surfactant mildness and oral irritation. The test sample solution was prepared in aqueous solution with 1% active content at pH of 7. The test sample solutions were applied to the oral tissue cells based on EpiOral Tissue Model provided by Mattek Corp. The viability of the cells over time was measured and used to calculate the time of exposure until viability is reduced to 50%, which is indicated by ET-50.
compound,measurement,setting,value
"CCCCCCCCCCCCOS(=O)(=O)[O-].[Na+] [Texapon ® OC-N, Sodium Lauryl Sulfate]",Oral Irritation Classification,"aqueous solution with 1% active content at pH of 7, class from ET-50",Moderately irritation
same,ET-50 based on EpiOral Model,"aqueous solution with 1% active content at pH of 7, time of exposure until viability is reduced to 50%",116.7 min
Cocamidopropyl Betaine [Dehyton ® PK 45],ET-50 based on EpiOral Model,pH 7,181.0 min
same,Oral Irritation Classification,pH 7,Mildly irritation
PEG-12 [Pluracare ® E-600],Oral Irritation Classification,pH 7,None to minimal irritation
